According to US7256187B2, “Rifamycin C-11 oxime derivatives effective against drug-resistant microbes” (Cumbre Pharmaceuticals Inc., priority 2004, dated 2007):
Values after ≈ are worked out from the molar mass of the structure shown.

How the values were obtained:
Assay type in all cases: cell-based
[1] = test system: Staphylococcus aureus ATCC29213; assay: MIC, microbroth dilution; settings: Staphylococcus aureus ATCC29213, rifS; read-out: Antimicrobial activity (MIC)
[2] = test system: Staphylococcus aureus ATCC29213 rpoB^D417Y; assay: microbe, parasite or virus in culture; settings: Staphylococcus aureus ATCC29213 rpoB^D417Y, rifR; read-out: Antimicrobial activity (MIC)
Method: (§1) Representative compounds were assayed for antimicrobial activity as follows: Minimum Inhibitory Concentrations (“MICs”) were determined by the microbroth dilution method as per NCCLS guidelines (National Committee for Clinical Laboratory Standards. 2000. Methods for dilution antimicrobial susceptibility tests for bacteria that grow aerobically, 5th ed. M7-A5. National Committee for Clinical Laboratory Standards, Wayne, Pa.), except that all growth incubations were conducted at 37° C. Bacterial cultures were tested in the following bacteriological media: S. aureus, S. epidermidis, and E. coli in Cation-Adjusted Mueller-Hinton Broth, S. pneumoniae in THY Broth supplemented with 1 mg/mL catalase under 5% CO2 atmosphere, S. pyogenes in THY Broth, E. faecalis in BHI Broth, H. influenzae in BHI Broth supplemented with 0.75 μL of 1 mg/mL NAD and 150 μL of 1 mg/ml hematin per 5 mL, and M. smegmatis in Middlebrook Broth plus ADC Enrichment.
(§2) S. aureus ATCC 29213 RpoB^H418Y is a rifampin-resistant strain with a mutation in the RpoB gene of RNA polymerase. […] S. aureus EN1252a gyrA^S84L grlA^S80F is a quinolone-resistant strain due to double gene mutations of DNA gyrase and topoisomerase IV.

[3] = test system: Staphylococcus aureus ATCC29213 rpoB^H418Y; assay: microbe, parasite or virus in culture; settings: Staphylococcus aureus ATCC29213 rpoB^H418Y, rifR; read-out: Antimicrobial activity (MIC)
Method: as §1, §2

[4] = test system: Staphylococcus aureus EN1252a gyrA^S84L grlA^S80F; assay: microbe, parasite or virus in culture; settings: Staphylococcus aureus EN1252a gyrA^S84L grlA^S80F, cipR; read-out: Antimicrobial activity (MIC)
Method: as §1, §2

[5] = test system: Staphylococcus epidermidis ATCC12228; assay: MIC, microbroth dilution; settings: Staphylococcus epidermidis ATCC12228, rifS; read-out: Antimicrobial activity (MIC)
[6] = test system: Streptococcus pneumoniae ATCC6303; assay: MIC, microbroth dilution; settings: Streptococcus pneumoniae ATCC6303, rifS; read-out: Antimicrobial activity (MIC)
[7] = test system: Streptococcus pyogenes ATCC19615; assay: MIC, microbroth dilution; settings: Streptococcus pyogenes ATCC19615, rifS; read-out: Antimicrobial activity (MIC)
[8] = test system: Enterococcus faecalis ATCC29212; assay: MIC, microbroth dilution; settings: Enterococcus faecalis ATCC29212, rifS; read-out: Antimicrobial activity (MIC)
[9] = test system: Haemophilus influenzae ATCC10211; assay: MIC, microbroth dilution; settings: Haemophilus influenzae ATCC10211, rifS; read-out: Antimicrobial activity (MIC)
[10] = test system: Escherichia coli ATCC25922; assay: MIC, microbroth dilution; settings: Escherichia coli ATCC25922, rifS; read-out: Antimicrobial activity (MIC)
[11] = test system: Mycobacterium smegmatis ATCC700084; assay: MIC, microbroth dilution; settings: Mycolicibacterium smegmatis; Mycobacterium smegmatis ATCC700084, rifS; read-out: Antimicrobial activity (MIC)

Row | Structure (SMILES) | MIC [1] [mg/L] | MIC [2] [mg/L] | MIC [3] [mg/L] | MIC [4] [mg/L] | MIC [5] [mg/L] | MIC [6] [mg/L] | MIC [7] [mg/L] | MIC [8] [mg/L] | MIC [9] [mg/L] | MIC [10] [mg/L] | MIC [11] [mg/L]
1 | COc1c(N2CCN(/N=C/c3c4c(O)c5c(O)c(C)c6c(c5c3O)/C(=N/O)[C@@](C)(O/C=C/[C@H](OC)[C@@H](C)[C@@H](OC(C)=O)[C@H](C)[C@H](O)[C@H](C)[C@@H](O)[C@@H](C)/C=C/C=C(/C)C(=O)N4)O6)C(C)C2)c(F)cc2c(=O)c(C(=O)O)cn(C3CC3)c12 (mixture of isomers) [Example 40, (R/S)-3-[4-(3-Carboxy-1-cyclopropyl-6-fluoro-8-methoxy-4-oxo-1,4-dihydroquinolin-7-yl)-2-methyl-piperazin-1-yl-aminomethylenyl]-11-deoxy-11-hydroxyiminorifamycin SV] | 0.004 to 0.5 (≈ 0.00359 to 0.449 µM) | 0.25 to 32 (≈ 0.225 to 28.7 µM) | 0.125 to 16 (≈ 0.112 to 14.4 µM) | 0.004 to 0.5 (≈ 0.00359 to 0.449 µM) | 0.0005 to 0.063 (≈ 0.000449 to 0.0566 µM) | 0.0002 to 0.125 (≈ 0.00018 to 0.112 µM) | 0.0005 to 0.063 (≈ 0.000449 to 0.0566 µM) | 2 to 32 (≈ 1.8 to 28.7 µM) | 0.03 to 2 (≈ 0.0269 to 1.8 µM) | 0.125 to 8 (≈ 0.112 to 7.19 µM) | 0.5 to 64 (≈ 0.449 to 57.5 µM)
2 | CO[C@H]1/C=C/O[C@@]2(C)Oc3c(C)c(O)c4c(c3/C2=N/O)/C(=N/O)C=C(NC(=O)/C(C)=C\C=C\[C@H](C)[C@H](O)[C@@H](C)[C@@H](O)[C@@H](C)[C@H](OC(C)=O)[C@@H]1C)C4=O [Example 4, 4, 11-Dideoxy-4,11-dihydroxyiminorifamycin S] | 0.004 to 0.5 (≈ 0.00551 to 0.689 µM) | 0.25 to 32 (≈ 0.344 to 44.1 µM) | 0.125 to 16 (≈ 0.172 to 22 µM) | 0.004 to 0.5 (≈ 0.00551 to 0.689 µM) | 0.0005 to 0.063 (≈ 0.000689 to 0.0868 µM) | 0.0002 to 0.125 (≈ 0.000276 to 0.172 µM) | 0.0005 to 0.063 (≈ 0.000689 to 0.0868 µM) | 2 to 32 (≈ 2.76 to 44.1 µM) | 0.03 to 2 (≈ 0.0413 to 2.76 µM) | 0.125 to 8 (≈ 0.172 to 11 µM) | 0.5 to 64 (≈ 0.689 to 88.2 µM)
3 | CO/N=C1/c2c3c(C)c(O)c4c2/C(=N/OC)C=C(NC(=O)/C(C)=C\C=C\[C@H](C)[C@H](O)[C@@H](C)[C@@H](O)[C@@H](C)[C@H](OC(C)=O)[C@H](C)[C@@H](OC)/C=C/O[C@@]1(C)O3)C4=O [Example 5, 4, 11-Dideoxy-4, 11-dimethoxyiminorifamycin S] | 0.004 to 0.5 (≈ 0.00531 to 0.663 µM) | 0.25 to 32 (≈ 0.332 to 42.4 µM) | 0.125 to 16 (≈ 0.166 to 21.2 µM) | 0.004 to 0.5 (≈ 0.00531 to 0.663 µM) | 0.0005 to 0.063 (≈ 0.000663 to 0.0836 µM) | 0.0002 to 0.125 (≈ 0.000265 to 0.166 µM) | 0.0005 to 0.063 (≈ 0.000663 to 0.0836 µM) | 2 to 32 (≈ 2.65 to 42.4 µM) | 0.03 to 2 (≈ 0.0398 to 2.65 µM) | 0.125 to 8 (≈ 0.166 to 10.6 µM) | 0.5 to 64 (≈ 0.663 to 84.9 µM)
4 | CO[C@H]1/C=C/O[C@@]2(C)Oc3c(C)c(O)c4c(c3/C2=N/O)C(=O)C=C(NC(=O)/C(C)=C\C=C\[C@H](C)[C@H](O)[C@@H](C)[C@@H](O)[C@@H](C)[C@H](OC(C)=O)[C@@H]1C)C4=O [Example 7, 11-Deoxy-11-hydroxyiminorifamycin S] | 0.004 to 0.5 (≈ 0.00563 to 0.703 µM) | 0.25 to 32 (≈ 0.352 to 45 µM) | 0.125 to 16 (≈ 0.176 to 22.5 µM) | 0.004 to 0.5 (≈ 0.00563 to 0.703 µM) | 0.0005 to 0.063 (≈ 0.000703 to 0.0886 µM) | 0.0002 to 0.125 (≈ 0.000281 to 0.176 µM) | 0.0005 to 0.063 (≈ 0.000703 to 0.0886 µM) | 2 to 32 (≈ 2.81 to 45 µM) | 0.03 to 2 (≈ 0.0422 to 2.81 µM) | 0.125 to 8 (≈ 0.176 to 11.3 µM) | 0.5 to 64 (≈ 0.703 to 90 µM)
5 | CO[C@H]1/C=C/O[C@@]2(C)Oc3c(C)c(O)c4c(c3/C2=N/OC(=O)c2ccncc2)C(=O)C=C(NC(=O)/C(C)=C\C=C\[C@H](C)[C@H](O)[C@@H](C)[C@@H](O)[C@@H](C)[C@H](OC(C)=O)[C@@H]1C)C4=O [Example 8, 11-Deoxy-11-(4-pyridylcarboxy)iminorifamycin S] | 0.004 to 0.5 (≈ 0.0049 to 0.613 µM) | 0.25 to 32 (≈ 0.306 to 39.2 µM) | 0.125 to 16 (≈ 0.153 to 19.6 µM) | 0.004 to 0.5 (≈ 0.0049 to 0.613 µM) | 0.0005 to 0.063 (≈ 0.000613 to 0.0772 µM) | 0.0002 to 0.125 (≈ 0.000245 to 0.153 µM) | 0.0005 to 0.063 (≈ 0.000613 to 0.0772 µM) | 2 to 32 (≈ 2.45 to 39.2 µM) | 0.03 to 2 (≈ 0.0368 to 2.45 µM) | 0.125 to 8 (≈ 0.153 to 9.81 µM) | 0.5 to 64 (≈ 0.613 to 78.4 µM)
6 | CO[C@H]1/C=C/O[C@@]2(C)Oc3c(C)c(O)c4c(c3/C2=N/OC(C)=O)C(=O)C=C(NC(=O)/C(C)=C\C=C\[C@H](C)[C@H](O)[C@@H](C)[C@@H](O)[C@@H](C)[C@H](OC(C)=O)[C@@H]1C)C4=O [Example 9, 11-Deoxy-11-acetoxyiminorifamycin S] | 0.004 to 0.5 (≈ 0.00531 to 0.664 µM) | 0.25 to 32 (≈ 0.332 to 42.5 µM) | 0.125 to 16 (≈ 0.166 to 21.3 µM) | 0.004 to 0.5 (≈ 0.00531 to 0.664 µM) | 0.0005 to 0.063 (≈ 0.000664 to 0.0837 µM) | 0.0002 to 0.125 (≈ 0.000266 to 0.166 µM) | 0.0005 to 0.063 (≈ 0.000664 to 0.0837 µM) | 2 to 32 (≈ 2.66 to 42.5 µM) | 0.03 to 2 (≈ 0.0399 to 2.66 µM) | 0.125 to 8 (≈ 0.166 to 10.6 µM) | 0.5 to 64 (≈ 0.664 to 85 µM)
